Experimental data published in the supplement of paper PMC10883282.

Tests used:
Experiment in all cases: relative viability vs DMSO control (72 h) (fraction); higher = more viable cells
KHOS-NP = system: KHOS-NP
Method in brief: (§1)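 Sarcoma cell lines in 384-well plates, seeded to reach 80–90% confluence, were given compound after 24 h and kept 72 h at 37 °C, 5% CO2, with 0.1% DMSO vehicle and a 5 µM positive control. Relative viability came from ATPLite as percent growth, averaged over up to triplicate wells. On the rescaled values, 1 equals full and 0 equals none.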

MES-SA = system: MES-SA
Method in brief: as §1

SW872 = system: SW872
Method in brief: as §1

A204 = system: A204
Method in brief: as §1

SW684 = system: SW684
Method in brief: as §1

SK-ES-1 = system: SK-ES-1
Method in brief: as §1

RD = system: RD
Method in brief: as §1

VA-ES-BJ = system: VA-ES-BJ
Method in brief: as §1

SYO-1 = system: SYO-1
Method in brief: as §1

HS729 = system: HS729
Method in brief: as §1

SK-LMS-1 = system: SK-LMS-1
Method in brief: as §1

G401 = system: G401
Method in brief: as §1

C=CC(=O)Nc1cc(Nc2nccc(-c3cn(C)c4ccccc34)n2)c(OC)cc1N(C)CCN(C)C [Osimertinib]
Conditions	relative viability
A204, 0.00017 µM	1.03
A204, 0.00051 µM	1.04
A204, 0.00152 µM	1.05
A204, 0.00457 µM	1.04
A204, 0.01372 µM	1.01
A204, 0.04115 µM	1.03
A204, 0.1235 µM	1.03
A204, 0.3704 µM	0.9068
A204, 1.111 µM	0.777
A204, 3.333 µM	0.582
A204, 10 µM	0.141
G401, 0.00017 µM	1.01
G401, 0.00051 µM	1.02
G401, 0.00152 µM	1.03
G401, 0.00457 µM	1.03
G401, 0.01372 µM	1.02
G401, 0.04115 µM	0.976
G401, 0.1235 µM	0.962
G401, 0.3704 µM	0.87
G401, 1.111 µM	0.816
G401, 3.333 µM	0.711
G401, 10 µM	0.0893
HS729, 0.00017 µM	1.06
HS729, 0.00051 µM	0.954
HS729, 0.00152 µM	1.04
HS729, 0.00457 µM	0.976
HS729, 0.01372 µM	0.944
HS729, 0.04115 µM	0.933
HS729, 0.1235 µM	0.907
HS729, 0.3704 µM	0.822
HS729, 1.111 µM	0.78
HS729, 3.333 µM	0.681
HS729, 10 µM	0.533
KHOS-NP, 0.00017 µM	1.1
KHOS-NP, 0.00051 µM	1.11
KHOS-NP, 0.00152 µM	1.084
KHOS-NP, 0.00457 µM	1.08
KHOS-NP, 0.01372 µM	1.07
KHOS-NP, 0.04115 µM	1.06
KHOS-NP, 0.1235 µM	1.06
KHOS-NP, 0.3704 µM	1.05
KHOS-NP, 1.111 µM	1.05
KHOS-NP, 3.333 µM	1.02
KHOS-NP, 10 µM	0.505
MES-SA, 0.00017 µM	0.979
MES-SA, 0.00051 µM	0.947
MES-SA, 0.00152 µM	0.961
MES-SA, 0.00457 µM	0.932
MES-SA, 0.01372 µM	0.97
MES-SA, 0.04115 µM	0.941
MES-SA, 0.1235 µM	0.948
MES-SA, 0.3704 µM	0.882
MES-SA, 1.111 µM	0.758
MES-SA, 3.333 µM	0.569
MES-SA, 10 µM	0.29
RD, 0.00017 µM	1.08
RD, 0.00051 µM	1.08
RD, 0.00152 µM	1.11
RD, 0.00457 µM	1.11
RD, 0.01372 µM	1.11
RD, 0.04115 µM	1.11
RD, 0.1235 µM	1.1
RD, 0.3704 µM	1.07
RD, 1.111 µM	1.02
RD, 3.333 µM	0.78
RD, 10 µM	0.0148
SK-ES-1, 0.00017 µM	1
SK-ES-1, 0.00051 µM	1.05
SK-ES-1, 0.00152 µM	1.07
SK-ES-1, 0.00457 µM	1.01
SK-ES-1, 0.01372 µM	1.02
SK-ES-1, 0.04115 µM	1.026
SK-ES-1, 0.1235 µM	1
SK-ES-1, 0.3704 µM	0.942
SK-ES-1, 1.111 µM	0.762
SK-ES-1, 3.333 µM	0.294
SK-ES-1, 10 µM	0.011
SK-LMS-1, 0.00017 µM	1.1
SK-LMS-1, 0.00051 µM	1.1
SK-LMS-1, 0.00152 µM	1.08
SK-LMS-1, 0.00457 µM	1.07
SK-LMS-1, 0.01372 µM	1.06
SK-LMS-1, 0.04115 µM	1.03
SK-LMS-1, 0.1235 µM	1.07
SK-LMS-1, 0.3704 µM	1.02
SK-LMS-1, 1.111 µM	0.972
SK-LMS-1, 3.333 µM	0.776
SK-LMS-1, 10 µM	0.032
SW684, 0.00017 µM	1.11
SW684, 0.00051 µM	1.18
SW684, 0.00152 µM	1.21
SW684, 0.00457 µM	1.2
SW684, 0.01372 µM	1.16
SW684, 0.04115 µM	1.13
SW684, 0.1235 µM	1.13
SW684, 0.3704 µM	1.12
SW684, 1.111 µM	1.11
SW684, 3.333 µM	0.984
SW684, 10 µM	0.063
SW872, 0.00017 µM	1.078
SW872, 0.00051 µM	1.06
SW872, 0.00152 µM	1.06
SW872, 0.00457 µM	1.08
SW872, 0.01372 µM	1.04
SW872, 0.04115 µM	1.02
SW872, 0.1235 µM	1.03
SW872, 0.3704 µM	0.988
SW872, 1.111 µM	0.894
SW872, 3.333 µM	0.761
SW872, 10 µM	0.384
SYO-1, 0.00017 µM	1.02
SYO-1, 0.00051 µM	0.992
SYO-1, 0.00152 µM	0.969
SYO-1, 0.00457 µM	0.971
SYO-1, 0.01372 µM	0.935
SYO-1, 0.04115 µM	0.9
SYO-1, 0.1235 µM	0.847
SYO-1, 0.3704 µM	0.713
SYO-1, 1.111 µM	0.576
SYO-1, 3.333 µM	0.418
SYO-1, 10 µM	-0.0037
VA-ES-BJ, 0.00017 µM	1.09
VA-ES-BJ, 0.00051 µM	1.09
VA-ES-BJ, 0.00152 µM	1.06
VA-ES-BJ, 0.00457 µM	1.04
VA-ES-BJ, 0.01372 µM	1.03
VA-ES-BJ, 0.04115 µM	1.02
VA-ES-BJ, 0.1235 µM	0.984
VA-ES-BJ, 0.3704 µM	0.926
VA-ES-BJ, 1.111 µM	0.877
VA-ES-BJ, 3.333 µM	0.752
VA-ES-BJ, 10 µM	0.0739
